Assay results published in patent US6822100B2 (Bristol-Myers Squibb Company, priority 2001, dated 2004).
pKi: −log10 of the molar value. Counter-ions that a name gives are not always drawn.

target: T1, human serotonin transporters (Homo sapiens, UniProt P31645); assay: Serotonin Transporter Binding Assay; details: HEK-hSERT cell membranes, 1 nM [3H]-citalopram, Cheng and Prusoff; read-out: SERT Ki
T1 construct: expressed in transfected cells; host or cells: HEK-293 (HEK-hSERT), membrane homogenates
Description: HEK-293 cells that stably express human serotonin transporters (HEK-hSERT cells) were grown at 37° C. in 5% CO2 as a monolayer in medium consisting of EMEM supplemented with 10% fetal bovine serum and G418 sulfate (500 μg/ml). To prepare membranes for radioligand binding experiments, cells were rinsed twice with phosphate-buffered saline (138 mM NaCl, 4.1 mM KCl, 5.1 mM Na2PO4, 1.5 mM […], 11.1 mM glucose, pH 7.4). Cells were transferred from plates to polypropylene tubes (16×100 mm), centrifuged at 1,200×g for 5 min and were frozen at −80° C. until assay. Following centrifugation, pellets were resuspended by homogenization in buffer consisting of 50 mM Tris (pH 7.7 at 25° C.), 120 mM NaCl and 5 mM KCl and then centrifuged at 32,000×g for 10 min. Following centrifugation, supernatants were discarded and pellets were resuspended in buffer consisting of 50 mM Tris (pH 7.4 at 25° C.), 150 mM NaCl and 5 mM KCl. Membrane homogenates (200 μl/plate) were incubated with 1 nM [^3H]-citalopram (specific activity=85 Ci/mmol) and increasing concentrations of test compounds for 1 hr at 25° C. in a total volume of 250 μl. The assay buffer consisted of 50 mM Tris (pH 7.4 at 25° C.), 120 mM NaCl and 5 mM KCl (pH 7.4 with conc. HCl). Plates were incubated for 1 hr at 25° C., then filtered through 0.5% PEI treated Whatman GF/B filters using a Brandel cell harvester. Filters were washed three times with 3 ml of ice-cold tris wash buffer. Non-specific binding was defined with 10 μM fluoxetine. Amount of radioligand bound in the presence and absence of competitor was analyzed by plotting (−)log drug concentration versus the amount of radioligand specifically bound. The midpoint of the displacement curve (IC50, nM), signifies the potency. Ki values were calculated using the method of Cheng and Prusoff (1973).

T1 sequence (P31645 whole entry): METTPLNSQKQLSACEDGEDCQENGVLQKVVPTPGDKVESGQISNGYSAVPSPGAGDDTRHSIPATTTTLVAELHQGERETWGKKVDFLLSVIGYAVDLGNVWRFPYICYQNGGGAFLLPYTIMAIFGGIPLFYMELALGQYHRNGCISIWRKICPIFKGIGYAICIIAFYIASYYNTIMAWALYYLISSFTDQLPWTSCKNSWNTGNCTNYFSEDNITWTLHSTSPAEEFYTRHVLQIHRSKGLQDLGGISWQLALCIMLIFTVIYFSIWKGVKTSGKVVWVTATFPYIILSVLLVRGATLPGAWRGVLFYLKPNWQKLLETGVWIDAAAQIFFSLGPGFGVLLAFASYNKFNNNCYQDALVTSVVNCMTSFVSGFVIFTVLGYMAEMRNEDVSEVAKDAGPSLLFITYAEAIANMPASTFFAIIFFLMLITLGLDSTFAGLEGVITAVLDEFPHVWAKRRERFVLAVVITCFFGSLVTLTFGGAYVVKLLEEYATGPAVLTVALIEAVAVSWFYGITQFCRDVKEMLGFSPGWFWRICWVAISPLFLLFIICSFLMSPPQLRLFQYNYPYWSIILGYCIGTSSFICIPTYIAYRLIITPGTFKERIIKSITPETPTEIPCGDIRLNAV

Row | Structure (SMILES) | pKi
1 | CNC[C@H]1C[C@@H]1c1c[nH]c2ccc(C(F)(F)F)cc12 (racemic) [Example 154, Methyl-[2-(5-trifluoromethyl-1H-indol-3-yl)-cyclopropylmethyl]-amine] | 7.00 to 8.00
2 | CCNC[C@H]1C[C@@H]1c1c[nH]c2cc(C(F)(F)F)ccc12 (racemic) [Example 156, Ethyl-[2-(6-trifluoromethyl-1H-indol-3-yl)-cyclopropylmethyl]-amine] | 6.00 to 7.00
3 | CN(Cc1ccccc1)C[C@H]1C[C@@H]1c1c[nH]c2cc(C(F)(F)F)ccc12 (racemic) [Example 157, Benzyl-methyl-[2-(6-trifluoromethyl-1H-indol-3-yl)-cyclopropylmethyl]-amine] | 6.00 to 7.00
4 | CCNC[C@H]1C[C@@H]1c1c[nH]c2cc(C#N)ccc12 (racemic) [Example 159, 3-(2-Ethylaminomethyl-cyclopropyl)-1H-indole-6-carbonitrile] | 6.00 to 7.00
5 | CCN(C)C[C@H]1C[C@@H]1c1c[nH]c2cc(C#N)ccc12 (racemic) [Example 161, 3-{2-[(Ethyl-methyl-amino)-methyl]-cyclopropyl}-1H-indole-6-carbonitrile] | 6.00 to 7.00
6 | CN(C)CC1CC1c1csc2ccccc12 (single isomer, unassigned; (-)) [Example 190A, (−)-(2-Benzo[b]thiophen-3-yl-cyclopropylmethyl)-dimethyl-amine] | 6.00 to 7.00
7 | CN(C)CC1CC1c1ccc2[nH]cc(Br)c2c1 (stereo not drawn) [Example 150, N,N-dimethyl-2-(3-bromoindol-5-yl)cycloprop-1-yl methylamine] | 7.00 to 8.00
8 | CN(C)CC1CC1c1ccc2[nH]cc(C#N)c2c1 (stereo not drawn) [Example 151, 5-(2-Dimethylaminomethyl-cyclopropyl)-1H-indole-3-carbonitrile] | 8.00 to 9.00
9 | CCN(C)CC1CC1c1n[nH]c2ccc(C#N)cc12 (stereo not drawn) [Example 164, 3-{2-[(Ethyl-methyl-amino)-methyl]-cyclopropyl}-1H-indazole-5-carbonitrile] | 6.00 to 7.00
10 | CCN(CC)CC1CC1c1n[nH]c2ccc(C#N)cc12 (stereo not drawn) [Example 165, 3-(2-Diethylaminomethyl-cyclopropyl)-1H-indazole-5-carbonitrile] | 6.00 to 7.00
11 | N#Cc1ccc2[nH]nc(C3CC3CN3CCCC3)c2c1 (stereo not drawn) [Example 166, 3-(2-Pyrrolidin-1-ylmethyl-cyclopropyl)-1H-indazole-5-carbonitrile] | 6.00 to 7.00
12 | CNCC1CC1c1csc2ccccc12 (stereo not drawn) [Example 168, (2-Benzo[b]thiophen-3-yl-cyclopropylmethyl)-methyl-amine] | 7.00 to 8.00
13 | CCN(C)CC1CC1c1csc2ccccc12 (stereo not drawn) [Example 170, (2-Benzo[b]thiophen-3-yl-cyclopropylmethyl)-ethyl-methyl-amine] | 6.00 to 7.00
14 | CCN(CC)CC1CC1c1csc2ccccc12 (stereo not drawn) [Example 171, (2-Benzo[b]thiophen-3-yl-cyclopropylmethyl)-diethyl-amine] | 6.00 to 7.00
15 | c1ccc2c(C3CC3CN3CCCC3)csc2c1 (stereo not drawn) [Example 172, 1-(2-Benzo[b]thiophen-3-yl-cyclopropylmethyl)-pyrrolidine] | 6.00 to 7.00
16 | CCN(CC)CCCC1CC1c1c[nH]c2ccc(C#N)cc12 (stereo not drawn) [Example 177, Trans-2-[5-cyanoindol-3-yl]1-(3-(N,N-diethylamino)propyl)cyclopropane] | 7.00 to 8.00
17 | C[N+](C)(C)C[C@H]1C[C@@H]1c1c[nH]c2ccc(C#N)cc12 [Example 187, S,S-Trans-2-[5-Cyanoindol-3-yl]-1-(trimethylammoniummethyl)cyclopropane trifluoroacetate] | > 9.00
18 | CN(C)C[C@H]1C[C@@H]1c1cn(C)c2ccc(C#N)cc12 [Example 188] | 8.00 to 9.00
19 | CCn1cc([C@H]2C[C@@H]2CN(C)C)c2cc(C#N)ccc21 [Example 189] | 8.00 to 9.00
20 | CN(C)CC1CC1c1ccc2cc[nH]c2c1 (stereo not drawn) [Example 191, [2-(1H-Indol-6-yl)-cyclopropylmethyl]-dimethyl-amine] | 7.00 to 8.00
21 | CN(C)CC1CC1c1ccc2c(C#N)c[nH]c2c1 (stereo not drawn) [Example 192, 6-(2-Dimethylaminomethyl-cyclopropyl)-1H-indole-3-carbonitrile] | 8.00 to 9.00
